The values that follow come from patent US9975852B2, “Quinoline sulfonyl derivatives and uses thereof” (Health Sciences North Research Institute, priority 2013, dated 2018).

Data set [1] relates to MCF7. The data set is described as follows: SRB antiproliferative assay, MCF7. Format: cell-based, human. The conditions noted are these: Homo sapiens. The essentials: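 Cells (5,000-10,000 per well) exposed to seven drug concentrations for 48 h, then TCA-fixed and stained with 0.4% SRB. Growth computed as (Ti−Tz)/(C−Tz)×100 against time-zero and untreated controls. GI50 taken from variable-slope sigmoidal fit.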
In general terms: The SRB assay estimates cell density from bound dye.

For data set [2], the system named is HeLa. The data set is described as follows: SRB antiproliferative assay, HeLa. Type of data set: cell-based. Conditions: Homo sapiens. How it is done:
(§1) Antiproliferative effects were determined by a sulforhodamine B (SRB) based protocol. For a typical screening experiment, 5,000-10,000 cells were inoculated into 100 μl medium per well of a 96-well microtiter plate as described previously. Briefly, after the inoculation, the microtiter plate was incubated at 37° C., 5% CO2, 95% air and 100% relative humidity for 24 h, prior to addition of experimental drugs. Some of the sample wells were fixed with 25 μl of 50% trichloroacetic acid (TCA) as a control of the cell population for each cell line at the time of drug addition (Tz). An aliquot of the frozen stock was thawed and diluted to the desired final maximum test-concentration with complete medium. […] The cells “stained” with SRB were solubilized with 10 mM trizma base, and the absorbance was read on an automated plate reader at a wavelength of 515-564 nm. The relative growth rate (%) was calculated for each of the compound concentrations according to the following formula: (Ti−Tz)/(C−Tz)×100 In the formula, time zero (Tz), control growth (C), and OD for different concentration of tested compounds (Ti). […] Values were calculated for each of these parameters if the level of activity was reached. However, if the effect was not reached or was exceeded, the value for that parameter was expressed as greater or less than the maximum or minimum concentration tested. […]

In data set [3] the test system is Jurkat. The data set is described as follows: SRB antiproliferative assay, Jurkat. Type of data set: cell-based. The conditions noted are these: Homo sapiens. Here is the method:
as §1

The subject of data set [4] is MCF7 cells. The experiment in a line: Flow cytometry, apoptosis of MCF7 cells. Format: cell-based, human. Conditions: VR-23 2.7 or 8.0 μM, 48 hours. How it is done: Asynchronous MCF7 cells were incubated for 48 hours in the absence (Sham treated control) or presence of VR-23 at 2.7 or 8.0 μM. […] (Note the sub-G1 DNA profile that is typical for apoptotic cell death.) The profiles of flow cytometry are consistent with the cell images in the corresponding upper panels (FIG. 3).
In general terms: In flow cytometry, cells or beads pass a laser one at a time.

For data set [5], the system named is MDA-MB231 human metastatic breast cancer cells. The data set is described as follows: Xenograft antitumor activity, ATH490 mice engrafted with MDA-MB231. Format: in vivo. How it is done: Five-week-old female CD-1 and ATH490 (strain code 490) athymic nude mice were purchased from Charles River (Quebec, Canada). The MDA-MB231 human metastatic breast cancer cells were obtained from the American Tissue Culture Collection (ATCC, Manassas, Va., USA). Cells were maintained under humidified condition at 37° C. and 5% CO2 in DMEM high glucose medium (ATCC) supplemented with 10% fetal bovine serum and antibiotics. All animal experiments, including animal handling, care, treatment and endpoint determination, were reviewed and approved by the Laurentian University Animal Care Committee (ACC) and carried out at Laurentian University Animal Care facility (Sudbury, Ontario, Canada)
To determine anti-tumor activity of VR-23 in an animal model, a xenograft model of human breast cancer cells in athymic nude mice was established. Exponentially growing MDA-MB231 cells were harvested and counted for inoculation into mice. Each mouse was subcutaneously injected at the flank with 10×10^6 cells in 0.2 ml ice cold 1×PBS. When tumor size reached 4-5 mm in diameter (n=4-5 per group), mice were randomly assigned into five (or more) groups.

The nature of data set [6]: Body weight of CD-1 mice. The conditions noted are these: 25 mg/kg/week VR-23 i.p. Format: in vivo.
Data set [7] can be described thus: Body weight of ATH490 mice. Format: in vivo. The conditions noted are these: VR-23 30 mg/kg. From the text:
D0-D25/D29 denotes day 0 to days 25/29 post-drug treatment. […] The body weights of ATH490 mice are normalized on the basis that those of day 0 are 100%.

The GI50 is the concentration that inhibits growth by half. The IC50 is the concentration that inhibits the measured activity by half. For the compound `O=[N+]([O-])c1ccc(S(=O)(=O)N2CCN(c3ccnc4cc(Cl)ccc34)CC2)c([N+](=O)[O-])c1` [Compound 1, 7-Chloro-4-(4-(2,4-dinitrophenylsulfonyl)piperazin-1-yl)quinoline], the GI50 in data set [1] (MCF7, 48 h, read-out: GI50 MCF7) was 2.32 ± 0.8 µM. The IC50 was determined as 2.3 ± 0.8 µM in data set [1] (MCF7, SRB); 4.4 ± 3 µM in data set [2]; 0.8 ± 0.1 µM in data set [3]. Moreover, the “Apoptosis (sub-G1 DNA profile)” value in data set [4] was “caused apoptosis”. Also, the “Decrease of tumor size compared to sham-treated control” value in data set [5] (VR-23 30 mg/kg twice per week i.p., three weeks) came to 4.6 fold. Further, in data set [5] (day 0, dosing as in Table IX B), the “Tumor size D0” value amounted to 46.51 ± 2.82. Also, in data set [5] (day 7 post-treatment, dosing as in Table IX B), the “Tumor size D7” value came out at 52.74 ± 5.64. For the same compound, in data set [5] (day 15 post-treatment, dosing as in Table IX B), the “Tumor size D15” value was 48.29 ± 17.30. The “Tumor size D18” value in data set [5] (day 18 post-treatment, dosing as in Table IX B) came out at 42.41 ± 17.95. The “Tumor size D22” value in data set [5] (day 22 post-treatment, dosing as in Table IX B) came out at 65.88 ± 25.92. Further, in data set [5] (four weeks treatment), the “VEGF immunostaining of tumor” value is on record as “did not show any notable amount of VEGF”. Moreover, the “Angiogenesis and spread of tumor cells” value in data set [5] (four weeks treatment, H & E) was “inhibited angiogenesis and the spread of tumor cells to surrounding tissue/organs”. Also, the “Tumor cell proliferation (Ki-67, mitotic index)” value in data set [5] (tumor samples 15 and 29 days post-treatment) is reported as “inhibited tumor cell proliferation”. In addition, the “Ill effects by changes in body weights” value in data set [6] is recorded as “did not show any ill effects”. Moreover, the “Toxic effect by body weight” value in data set [7] was “did not show any notable toxic effect”.
